Patent US20230390297A1, “USE OF NUCLEOTIDE SYNTHESIS INHIBITORS FOR TARGETED THERAPY IN MLL3/4 COMPASS MUTANT CANCER” (priority 2022, published 2023)

Experiments:
[1] = system: RKO, HCT116, DLD1, Caco2, HT55 and SW1417 cells; test: Western blot of cell cycle and apoptosis markers in colorectal cancer cells; type: cell-based, human; settings: 1 μM LTX, 24 hours; MLL4 mutant vs WT cells
Procedure: FIG. 5. MLL4 mutant colorectal cancer cells are selectively sensitive to lometrexol treatment. (A) 100 μL of 0.5×10^5 cells/mL cells were seeded in 96-well plates one day before treatment. Cells were treated with 0-30 μM lometrexol (LTX) with 3× fold dilution for 72 hours. CellTiter-Glo® luminescent cell viability assay was performed to determine the percentage of inhibition under these conditions. The line plot compares sensitivity difference of all cell lines tested. (B) RKO, HCT116, DLD1, Caco2, HT55 and SW1417 cells were treated with DMSO or 1 μM LTX for 24 hours and whole cell lysates were used for western blot against cell cycle (H3 Ser10-p, CDT1, CyclinB 1, Geminin, CyclinEl, CyclinA2, p-cdc2) and apoptosis (PARP, Caspase3) markers using Hsp90 and I3-tubulin as loading control. […] (F) A subset of representative terms from the full cluster were selected and converted into a network layout. Each term is represented by a circle node, where its size is proportional to the number of input genes fall under that term, and its color represent its cluster identity. Terms with a similarity score>0.3 are linked by an edge (the thickness of the edge represents the similarity score). The network is visualized with Cytoscape with “force-directed” layout and with edge bundled for clarity. One term from each cluster is selected to have its term description shown as label. […]

[2] = system: RKO, HCT116, DLD1 (MLL4 mutant) and HT55, Caco2, SW1417 (MLL4 WT) cells; test: RNA-seq in colorectal cancer cells treated with LTX; type: cell-based, human; settings: 1 μM LTX, 24 hours
Procedure: FIG. 5. MLL4 mutant colorectal cancer cells are selectively sensitive to lometrexol treatment. (A) 100 μL of 0.5×10^5 cells/mL cells were seeded in 96-well plates one day before treatment. Cells were treated with 0-30 μM lometrexol (LTX) with 3× fold dilution for 72 hours. CellTiter-Glo® luminescent cell viability assay was performed to determine the percentage of inhibition under these conditions. The line plot compares sensitivity difference of all cell lines tested. (B) RKO, HCT116, DLD1, Caco2, HT55 and SW1417 cells were treated with DMSO or 1 μM LTX for 24 hours and whole cell lysates were used for western blot against cell cycle (H3 Ser10-p, CDT1, CyclinB 1, Geminin, CyclinEl, CyclinA2, p-cdc2) and apoptosis (PARP, Caspase3) markers using Hsp90 and I3-tubulin as loading control. […] (F) A subset of representative terms from the full cluster were selected and converted into a network layout. Each term is represented by a circle node, where its size is proportional to the number of input genes fall under that term, and its color represent its cluster identity. Terms with a similarity score>0.3 are linked by an edge (the thickness of the edge represents the similarity score). The network is visualized with Cytoscape with “force-directed” layout and with edge bundled for clarity. One term from each cluster is selected to have its term description shown as label.
FIG. 18. RNA-seq data in colorectal cancer cells treated with LTX. (A) Cellular morphological change in different cells treated with LTX at 1 μM for 24 hours under bring field microscope.
FIG. 19. The unique gene expression signature of MLL4 mutant cells in response to LTX treatment. (A-B) RNA-seq track examples showing the AURKA (A) and PLK1 (B) gene expression in different cell lines in response to LTX treatment. […] The 10 common genes found in the plots were defined as “lometrexol responsive mitotic gene signature” including PLK1, AURKA, CDCA3, CDC20, SFPQ, POLA1, PSRC1, KIF20A, FAM83D, and DLGAP5. (D) Volcano plots showing the 10 genes in MLL4 WT cell lines including HT55, Caco2, and SW1417.
Gene count tables were constructed using HTseq (56) with Ensembl gene annotations and used as input for edgeR 3.0.8 (57). Genes with Benjamini-Hochburg adjusted p-values less than were differentially expressed. Batch effects were removed using ComB at-seq on the raw read counts (58). Pathway analysis was performed with Metascape (59).

Nc1nc2c(c(=O)[nH]1)C[C@@H](CCc1ccc(C(=O)N[C@@H](CCC(=O)O)C(=O)O)cc1)CN2 [lometrexol, (2S)-2-[[4-[2-[(6R)-2-amino-4-oxo-5,6,7,8-tetrahydro-3H-pyrido[2,3-d]pyrimidin-6-yl]ethyl]benzoyl]amino]pentanedioic acid]
cell cycle markers H3 Ser10-p, CDT1, CyclinB1 (western blot) [1]: significant downregulation of histone H3 Serine10 phosphorylation (H3 Ser10-p), CDT1 and CyclinB1 was observed only in MLL4 mutant cells but not WT cells
differential gene expression change ([2]; MLL4 mutant vs WT cells): only induced significant differential gene expression change in MLL4 mutant cells
PLK1 and AURKA gene expression ([2]; remained the same in MLL4 WT cells): remarkably diminished in all MLL4 mutant cells
genes commonly downregulated in all MLL4 mutant cells (RKO, HCT116, DLD1) ([2]; unaffected in MLL4 WT cells): 885 genes
genes commonly upregulated in MLL4 mutant cells (RKO, HCT116, DLD1) ([2]; unaffected in MLL4 WT cells): 707 genes
